Like-named read-outs stand apart in the source and are kept apart here. Non-standard residues stand in square brackets, D forms with d. Residues, ends and D or L forms follow the SMILES beside them. *: point of attachment. Lys(5-FITC)NH2 = NC(=O)[C@H](CCCCNC(=S)Nc1ccc2c(c1)C(=O)OC21c2ccc(O)cc2Oc2cc(O)ccc21)N*; RhodamineB = CCN(CC)c1ccc2c(-c3ccccc3C(=O)*)c3ccc(=[N+](CC)CC)cc-3oc2c1; 2Nal = N[C@@H](Cc1ccc2ccccc2c1)C(=O)O; d2Nal = N[C@H](Cc1ccc2ccccc2c1)C(=O)O
Experiments:
[1] = test system: cell type (e.g., HeLa cells); assay: Cellular uptake efficiency of cyclic CPPs; assay type: cell-based; settings: relative to cFΦR4 (290-1F, 100%)
Experimental: In particular embodiments, uptake efficiency is determined by comparing (i) the amount of a cyclic cell-penetrating peptide of the invention internalized by a cell type (e.g., HeLa cells) to (ii) the amount of c(FΦRRRRQ) (290-1F) internalized by the same cell type. To measure cellular uptake efficiency, the cell type may be incubated in the presence of a cell-penetrating peptide of the invention for a specified period of time (e.g., 30 minutes, 1 hour, 2 hours, etc.) after which the amount of the cell-penetrating peptide internalized by the cell is quantified. Separately, the same concentration of c(FΦRRRRQ) (290-1F) is incubated in the presence of the cell type over the same period of time, and the amount of the second peptide internalized by the cell is quantified. Quantification can be achieved by fluorescently labeling the cell-penetrating peptide (e.g., with a FTIC dye) and measuring the fluorescence intensity using techniques well-known in the art.
(§1) Also discussed herein are the CPP sequences in Table 16. All uptake/delivery efficiencies are in Table 17 are relative to that of cFΦR4 (290-1F, 100%). SUV1 are small unilamellar vesicles that mimic the neutral outer membrane of mammalian cells [45% phosphatidylcholine (PC), 20% phosphatidylethanolamine (PE), 20% sphingomyelin (SM), and 15% cholesterol (CHO)]. SUV2 are small unilamellar vesicles that mimic the negatively charged endosomal membrane of mammalian cells [50% PC, 20% PE, 10% phosphatidylinositol (PI), and 20% bis(monoacylglycerol)phosphate].

[2] = test system: SUV1 (vesicles that mimic the neutral outer membrane of mammalian cells); assay: Fluorescence polarization membrane binding, SUV1
Text: as §1
(§2) Measurements were carried out fluorescence polarization using FITC-labeled cyclic peptides against increasing concentrations of vesicles. Experiments were performed at pH 7.4 and 5.5 (pH inside late endosomes).

[3] = test system: SUV2 (vesicles that mimic the negatively charged endosomal membrane of mammalian cells); assay: Fluorescence polarization membrane binding, SUV2
Text: as §1, §2

HEK293 cells = assay: Live-cell confocal microscopy of internalization; assay type: cell-based, human; settings: 5 μM peptide, 2 h
Experimental: To examine the internalization of rhodamine-labeled peptides, 5×10^4 HEK293 cells were plated in a 35 mm glass-bottomed microwell dish (MatTek). […] The cells were gently washed with DPBS twice and imaged on a Visitech Infinity 3 Hawk 2D-array live cell imaging confocal microscope. To detect the internalization of pCAP-containing peptides, HEK293 cells were similarly plated and incubated with the peptide solution (5 μM) at 37° C. for 60 min. After removal of the medium, the cells were gently washed with DPBS containing sodium pervanadate (1 mM) twice and incubated for 10 min in DPBS containing 5 μM nuclear staining dye DRAQS. The resulting cells were washed with DPBS twice and imaged on a spinning disk confocal microscope (UltraView Vox CSUX1 system). To monitor GFP internalization, 5×10^4 HEK293 cells were seeded in a 35 mm glass-bottomed microwell dish and cultured overnight. Cells were treated with cFΦR4-S-S-GFP (1 μM) at 37° C. for 2 h. After removal of the medium, the cells were incubated in DPBS containing 5 μM DRAQS for 10 min. The cells were washed with DPBS twice and imaged on a Visitech Infinity 3 Hawk 2D-array live cell imaging confocal microscope.

[4] = pH 7.4, read-out: Membrane Binding KD (mM) SUV1 pH 7.4
[5] = pH 5.5, read-out: Membrane Binding KD (mM) SUV2 pH 5.5
[6] = pH 7.4, read-out: Membrane Binding KD (mM) SUV2 pH 7.4

In the case of N=C(N)NCCC[C@@H]1NC(=O)[C@H](CCC(=O)N[C@@H](CCCCNC(=S)Nc2ccc3c(c2)C(=O)OC32c3ccc(O)cc3Oc3cc(O)ccc32)C(N)=O)NC(=O)[C@H](CCCNC(=N)N)NC(=O)[C@H](Cc2ccc3ccccc3c2)NC(=O)[C@H](CCCNC(=N)N)NC(=O)[C@H](Cc2ccccc2)NC(=O)[C@H](CCCNC(=N)N)NC(=O)[C@H](Cc2ccccc2)NC1=O [Peptide 290-8F] (cyclo(RFRFR[2Nal]RE(Lys(5-FITC)NH2))), the “Uptake Efficiency (%)” value [1] is reported as 98%, the Kd [2, 4] is reported as 0.4 mM and the Kd [3, 5] is reported as 0.082 mM. The Kd [3, 6] was 0.39 mM.
N=C(N)NCCC[C@@H]1NC(=O)[C@H](CCCNC(=N)N)NC(=O)[C@H](CCCNC(=N)N)NC(=O)[C@H](Cc2ccc3ccccc3c2)NC(=O)[C@H](Cc2ccccc2)NC(=O)[C@H](CCC(=O)N[C@@H](CCCCNC(=S)Nc2ccc3c(c2)C(=O)OC32c3ccc(O)cc3Oc3cc(O)ccc32)C(N)=O)NC1=O [Peptide 290-5F, c(FΦRRRQ)] (cyclo(F[2Nal]RRRE(Lys(5-FITC)NH2))) was tested, and the “Uptake Efficiency (%)” value [1] was 97%, the Kd [2, 4] was 10.1 mM and the Kd [3, 5] was 0.066 mM. For the same compound, the Kd [3, 6] was 2.4 mM.
For N=C(N)NCCC[C@@H]1NC(=O)[C@H](Cc2ccccc2)NC(=O)[C@H](CCCNC(=N)N)NC(=O)[C@@H](CCCNC(=N)N)NC(=O)[C@H](CCC(=O)N[C@@H](CCCCNC(=S)Nc2ccc3c(c2)C(=O)OC32c3ccc(O)cc3Oc3cc(O)ccc32)C(N)=O)NC(=O)[C@H](CCCNC(=N)N)NC(=O)[C@H](Cc2ccc3ccccc3c2)NC1=O [Peptide 290-10F, c(rRFRΦRQ)] (cyclo([dR]RFR[2Nal]RE(Lys(5-FITC)NH2))), the “Uptake Efficiency (%)” value [1] was 52%, the Kd [2, 4] was 1.2 mM and the Kd [3, 5] was 0.17 mM. It also gave a Kd [3, 6] of 0.87 mM.
N=C(N)NCCC[C@@H]1NC(=O)[C@H](Cc2ccc3ccccc3c2)NC(=O)[C@@H](Cc2ccccc2)NC(=O)[C@H](CCC(=O)N[C@@H](CCCCNC(=S)Nc2ccc3c(c2)C(=O)OC32c3ccc(O)cc3Oc3cc(O)ccc32)C(N)=O)NC(=O)[C@H](CCCNC(=N)N)NC(=O)[C@@H](CCCNC(=N)N)NC(=O)[C@H](CCCNC(=N)N)NC(=O)[C@@H](CCCNC(=N)N)NC1=O [Peptide 290-11F, c(fΦRrRrRQ)] (cyclo([2Nal]R[dR]R[dR]RE(Lys(5-FITC)NH2)[dF])) was tested, and the “Uptake Efficiency (%)” value [1] was 542%, the Kd [2, 4] was 2.7 mM and the Kd [3, 5] was 0.019 mM. It also gave a Kd [3, 6] of 0.092 mM.
In the case of N=C(N)NCCC[C@@H]1NC(=O)[C@H](Cc2ccc3ccccc3c2)NC(=O)[C@@H](Cc2ccccc2)NC(=O)[C@H](Cc2ccccc2)NC(=O)[C@H](CCC(=O)N[C@@H](CCCCNC(=S)Nc2ccc3c(c2)C(=O)OC32c3ccc(O)cc3Oc3cc(O)ccc32)C(N)=O)NC(=O)[C@@H](CCCNC(=N)N)NC(=O)[C@H](CCCNC(=N)N)NC(=O)[C@@H](CCCNC(=N)N)NC1=O [Peptide 290-12F, c(FfΦRrRrQ)] (cyclo(F[dF][2Nal]R[dR]R[dR]E(Lys(5-FITC)NH2))), the “Uptake Efficiency (%)” value [1] is reported as 681%, the Kd [2, 4] is reported as 0.8 mM and the Kd [3, 5] is reported as 0.004 mM. It also gave a Kd [3, 6] of 0.026 mM.
For N=C(N)NCCC[C@@H]1NC(=O)[C@H](CCC(=O)N[C@@H](CCCCNC(=S)Nc2ccc3c(c2)C(=O)OC32c3ccc(O)cc3Oc3cc(O)ccc32)C(N)=O)NC(=O)[C@H](CCCNC(=N)N)NC(=O)[C@H](CCCNC(=N)N)NC(=O)[C@H](Cc2ccccc2)NC(=O)[C@H](Cc2ccc3ccccc3c2)NC(=O)[C@H](CCCNC(=N)N)NC1=O [Peptide 290-2F, c(RRΦFRRQ)] (cyclo(RR[2Nal]FRRE(Lys(5-FITC)NH2))), the “Uptake Efficiency (%)” value [1] was 47%, the Kd [2, 4] was 1.95 mM and the Kd [3, 5] was 0.025 mM. For the same compound, the Kd [3, 6] was 0.69 mM.
“cyclo(FΦRRRRQ)-RRRRR-K(Rho) (cyclo(F[2Nal]RRRRQRRRRRK(RhodamineB)); not fully specified (C-terminus, bridges); printed as cyclo(FΦRRRRQ)-RRRRR-K(Rho)) [cFΦR4-R5]” was tested, and the “Intracellular fluorescence of rhodamine B-labeled peptide” value (HEK293 cells) was “both punctuate and diffuse fluorescence”.
With N=C(N)NCCC[C@@H]1NC(=O)[C@H](CCCNC(=N)N)NC(=O)[C@H](CCCNC(=N)N)NC(=O)[C@H](Cc2ccccc2)NC(=O)[C@H](CCC(=O)N[C@@H](CCCCNC(=S)Nc2ccc3c(c2)C(=O)OC32c3ccc(O)cc3Oc3cc(O)ccc32)C(N)=O)NC(=O)[C@H](Cc2ccc3ccccc3c2)NC(=O)[C@H](CCCNC(=N)N)NC1=O [Peptide 290-4F, c(FRRRRΦQ)] (cyclo(FRRRR[2Nal]E(Lys(5-FITC)NH2))) the “Uptake Efficiency (%)” value [1] was 59%, the Kd [2, 4] was 7.24 mM and the Kd [3, 5] was 0.11 mM. For the same compound, the Kd [3, 6] was 0.54 mM.
In the case of N=C(N)NCCC[C@@H]1NC(=O)[C@@H](CCCNC(=N)N)NC(=O)[C@H](CCCNC(=N)N)NC(=O)[C@@H](CCCNC(=N)N)NC(=O)[C@@H](Cc2ccc3ccccc3c2)NC(=O)[C@H](Cc2ccccc2)NC(=O)[C@@H](CCC(=O)N[C@@H](CCCCNC(=S)Nc2ccc3c(c2)C(=O)OC32c3ccc(O)cc3Oc3cc(O)ccc32)C(N)=O)NC1=O [Peptide 290-18F, c(FϕrRrRq)] (cyclo(F[d2Nal][dR]R[dR]R[dE](Lys(5-FITC)NH2))), the “Uptake Efficiency (%)” value [1] is reported as 205%, the Kd [2, 4] is reported as 0.75 mM and the Kd [3, 5] is reported as 0.022 mM. It also gave a Kd [3, 6] of 0.04 mM.
With N=C(N)NCCC[C@@H]1NC(=O)[C@H](Cc2ccc3ccccc3c2)NC(=O)[C@@H](Cc2ccccc2)NC(=O)[C@H](CCC(=O)N[C@@H](CCCCNC(=S)Nc2ccc3c(c2)C(=O)OC32c3ccc(O)cc3Oc3cc(O)ccc32)C(N)=O)NC(=O)[C@@H](CCCNC(=N)N)NC(=O)[C@H](CCCNC(=N)N)NC(=O)[C@@H](CCCNC(=N)N)NC1=O [Peptide 290-9F, c(fΦRrRrQ)] (cyclo([dF][2Nal]R[dR]R[dR]E(Lys(5-FITC)NH2))) the “Uptake Efficiency (%)” value [1] was 602%, the Kd ([2]; pH 5.5, read-out: Membrane Binding KD (mM) SUV1 pH 5.5) was 0.81 mM and the Kd [2, 4] was 1.2 mM. For the same compound, the Kd [3, 5] was 0.012 mM and the Kd [3, 6] was 0.033 mM.
For N=C(N)NCCC[C@@H]1NC(=O)[C@H](CCC(=O)N[C@@H](CCCCNC(=S)Nc2ccc3c(c2)C(=O)OC32c3ccc(O)cc3Oc3cc(O)ccc32)C(N)=O)NC(=O)[C@H](CCCNC(=N)N)NC(=O)[C@H](Cc2ccc3ccccc3c2)NC(=O)[C@H](CCCNC(=N)N)NC(=O)[C@H](Cc2ccccc2)NC(=O)[C@H](CCCNC(=N)N)NC1=O [Peptide 290-3F, c(RRFRΦRQ)] (cyclo(RRFR[2Nal]RE(Lys(5-FITC)NH2))), the “Uptake Efficiency (%)” value [1] was 163%, the Kd [2, 4] was 0.22 mM and the Kd [3, 5] was 0.26 mM. It also gave a Kd [3, 6] of 0.4 mM.
For N=C(N)NCCC[C@@H]1NC(=O)[C@H](CCCNC(=N)N)NC(=O)[C@H](CCCNC(=N)N)NC(=O)[C@H](CCCNC(=N)N)NC(=O)[C@H](Cc2ccc3ccccc3c2)NC(=O)[C@H](Cc2ccccc2)NC(=O)[C@H](CCC(=O)N[C@@H](CCCCNC(=S)Nc2ccc3c(c2)C(=O)OC32c3ccc(O)cc3Oc3cc(O)ccc32)C(N)=O)NC(=O)[C@H](CCCNC(=N)N)NC1=O [Peptide 290-6F] (cyclo([2Nal]RRRRRE(Lys(5-FITC)NH2)F)), the “Uptake Efficiency (%)” value [1] was 184%, the Kd [2, 4] was 2.2 mM and the Kd [3, 5] was 0.019 mM. The Kd [3, 6] was 0.12 mM.
For N=C(N)NCCC[C@@H]1NC(=O)[C@H](CCCNC(=N)N)NC(=O)[C@H](CCCNC(=N)N)NC(=O)[C@H](Cc2ccc3ccccc3c2)NC(=O)[C@H](Cc2ccccc2)NC(=O)[C@H](Cc2ccccc2)NC(=O)[C@H](CCC(=O)N[C@@H](CCCCNC(=S)Nc2ccc3c(c2)C(=O)OC32c3ccc(O)cc3Oc3cc(O)ccc32)C(N)=O)NC(=O)[C@H](CCCNC(=N)N)NC1=O [Peptide 290-7F] (cyclo(FF[2Nal]RRRRE(Lys(5-FITC)NH2))), the “Uptake Efficiency (%)” value [1] was 134%, the Kd [2, 4] was 1.65 mM and the Kd [3, 5] was 0.007 mM. It also gave a Kd [3, 6] of 0.11 mM.
For N=C(N)NCCC[C@@H]1NC(=O)[C@@H](CCCNC(=N)N)NC(=O)[C@H](CCCNC(=N)N)NC(=O)[C@@H](CCCNC(=N)N)NC(=O)[C@@H](Cc2ccc3ccccc3c2)NC(=O)[C@H](Cc2ccccc2)NC(=O)[C@H](CCC(=O)N[C@@H](CCCCNC(=S)Nc2ccc3c(c2)C(=O)OC32c3ccc(O)cc3Oc3cc(O)ccc32)C(N)=O)NC1=O [Peptide 290-13F, c(FϕrRrRQ)] (cyclo(F[d2Nal][dR]R[dR]RE(Lys(5-FITC)NH2))), the “Uptake Efficiency (%)” value [1] was 200%, the Kd [2, 4] was 0.68 mM and the Kd [3, 5] was 0.04 mM. It also gave a Kd [3, 6] of 0.28 mM.

Source: US10815276B2, “Cell penetrating peptides and methods of making and using thereof” (Entrada Therapeutics, Inc., priority 2014, dated 2020)
